We go through three compounds from US20180085330A1, “Dose Adjustment” (AbbVie Inc., priority 2016, published 2018).

Series [1] is described as follows: Potentially significant drug interactions identified in drug interaction studies (effect on concentration). Format: in vivo, human. From the text: Table 1 provides the effect of coadministration of glecaprevir and pibrentasvir on concentrations of concomitant drugs and the effect of concomitant drugs on glecaprevir and pibrentasvir.
Series [2] is described as follows: Drug-drug interaction evaluation in overseas subjects, Phase 1 clinical studies (Example 6). The note with it: coadministered with glecaprevir and pibrentasvir. The class given is in vivo, human (overseas subjects). Here is the method:
The drug-drug interaction (DDI) of glecaprevir and pibrentasvir was characterized from Phase 1 clinical studies in overseas subjects. DDI was evaluated between glecaprevir and pibrentasvir and drug transporter and CYP probes (CYP3A4, CYP1A2, CYP2D6, CYP2C9 and CYP2C19) and concomitant medications used in HCV-infected subjects including anti-retroviral (ARVs), calcium-channel blockers (CCB), angiotensin-receptor blockers (ARBs), opioids and tacrolimus. Safety and tolerability were assessed throughout the studies.

The nature of series [3]: Drug interaction studies: pharmacokinetic parameters of coadministered drug in the presence of glecaprevir/pibrentasvir. Format: in vivo, human. Particulars: digoxin 0.5 mg single dose; GLE/PIB 400/120 mg once daily. On the procedure:
(§1) Drug interaction studies were performed with glecaprevir/pibrentasvir and other drugs that are likely to be coadministered and with drugs commonly used as probes for pharmacokinetic interactions.

Series [4] is described as follows: Digoxin single dose with multiple doses of glecaprevir and pibrentasvir (Example 3). The class given is in vivo, human (adult male and female subjects). From the text: This Example assessed pharmacokinetics, safety, and tolerability of multiple doses of glecaprevir and pibrentasvir with a single dose of digoxin. Adult male and female subjects in general good health (N=12) were enrolled in the study.

The nature of series [5]: Drug interaction studies: pharmacokinetic parameters of glecaprevir or pibrentasvir in the presence of coadministered drug. Format: in vivo, human. Here is the method: as §1
The subject of series [6] is cytochrome P450 (CYP) 3A. In words: CYP3A inhibition. The class given is in vitro ADME.
Series [7] has as its system OATP1B1/3. The series can be described thus: Substrate of OATP1B1/3. The class given is in vitro ADME.
Series [8] concerns the target T1, breast cancer resistance protein (BCRP) (Homo sapiens, UniProt Q9UNQ0).
T1 sequence (Q9UNQ0 1-655): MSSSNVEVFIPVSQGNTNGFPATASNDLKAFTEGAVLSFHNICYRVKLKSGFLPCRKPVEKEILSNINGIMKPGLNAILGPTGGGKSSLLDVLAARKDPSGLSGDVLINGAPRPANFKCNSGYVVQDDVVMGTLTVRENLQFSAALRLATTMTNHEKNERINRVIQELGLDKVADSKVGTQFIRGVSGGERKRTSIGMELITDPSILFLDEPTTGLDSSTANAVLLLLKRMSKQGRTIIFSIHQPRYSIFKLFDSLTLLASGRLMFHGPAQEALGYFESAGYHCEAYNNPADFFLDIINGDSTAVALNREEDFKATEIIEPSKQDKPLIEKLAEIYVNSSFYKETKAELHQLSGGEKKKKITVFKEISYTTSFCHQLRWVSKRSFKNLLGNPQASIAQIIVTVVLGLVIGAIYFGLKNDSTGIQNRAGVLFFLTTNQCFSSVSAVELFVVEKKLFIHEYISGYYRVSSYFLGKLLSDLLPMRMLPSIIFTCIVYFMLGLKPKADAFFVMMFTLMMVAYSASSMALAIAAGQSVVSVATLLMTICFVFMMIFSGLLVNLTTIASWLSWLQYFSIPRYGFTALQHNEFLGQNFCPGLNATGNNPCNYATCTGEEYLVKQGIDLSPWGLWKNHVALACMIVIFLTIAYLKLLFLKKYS
In words: BCRP inhibition. The class given is in vitro ADME.

Series [9] has as its target T2, uridine glucuronosyltransferase (UGT) 1A1 (Homo sapiens, UniProt P22309).
T2 sequence (P22309 26-533): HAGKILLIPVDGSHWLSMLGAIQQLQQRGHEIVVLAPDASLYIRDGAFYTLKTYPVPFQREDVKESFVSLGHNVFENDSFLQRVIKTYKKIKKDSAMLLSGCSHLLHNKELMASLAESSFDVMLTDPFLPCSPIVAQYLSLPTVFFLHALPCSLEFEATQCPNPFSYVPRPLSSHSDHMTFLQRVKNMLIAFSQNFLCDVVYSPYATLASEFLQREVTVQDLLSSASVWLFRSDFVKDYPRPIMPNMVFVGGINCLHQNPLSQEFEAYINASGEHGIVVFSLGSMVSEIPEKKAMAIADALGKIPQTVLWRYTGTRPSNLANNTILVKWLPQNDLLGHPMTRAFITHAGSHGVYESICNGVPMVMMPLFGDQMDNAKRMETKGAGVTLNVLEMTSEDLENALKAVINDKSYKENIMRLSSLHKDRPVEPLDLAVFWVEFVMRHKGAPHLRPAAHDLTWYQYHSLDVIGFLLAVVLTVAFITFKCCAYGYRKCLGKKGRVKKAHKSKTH
The series can be described thus: UGT1A1 inhibition. Format: in vitro ADME.

Series [10] concerns the target T3, CYP1A2 (Homo sapiens, UniProt P05177).
T3 sequence (P05177 1-516): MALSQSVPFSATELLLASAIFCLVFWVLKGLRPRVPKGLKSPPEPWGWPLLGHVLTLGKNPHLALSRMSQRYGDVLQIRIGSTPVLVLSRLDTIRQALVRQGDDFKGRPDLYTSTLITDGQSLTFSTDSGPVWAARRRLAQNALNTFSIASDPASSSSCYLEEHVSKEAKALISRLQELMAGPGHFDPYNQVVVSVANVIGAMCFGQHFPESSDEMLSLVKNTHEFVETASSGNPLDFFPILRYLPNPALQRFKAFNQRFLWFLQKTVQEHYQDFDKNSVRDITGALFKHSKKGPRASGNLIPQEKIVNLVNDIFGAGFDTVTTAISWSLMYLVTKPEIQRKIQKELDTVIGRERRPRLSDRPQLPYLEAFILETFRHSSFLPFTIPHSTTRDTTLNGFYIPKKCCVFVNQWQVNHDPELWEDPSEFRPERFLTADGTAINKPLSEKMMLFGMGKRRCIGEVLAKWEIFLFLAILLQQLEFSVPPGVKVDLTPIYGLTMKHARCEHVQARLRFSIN
The series can be described thus: CYP1A2 inhibition. Format: in vitro ADME.

In series [11] the test system is organic anion transporting polypeptide (OATP) 1B1/3. The series can be described thus: OATP1B1/3 inhibition. The class given is in vitro ADME.
For series [12], the system named is P-gp and/or BCRP. In words: Substrate of P-gp and/or BCRP. Format: in vitro ADME.
Series [13] has as its target P-glycoprotein (P-gp) (Homo sapiens, UniProt P08183). In words: P-gp inhibition. Format: in vitro ADME.
Where [14] appears, read: digoxin 0.5 mg single dose with glecaprevir 400 mg QD + pibrentasvir 120 mg QD.
The mark [15] stands for this setting: digoxin 0.5 mg single dose, glecaprevir 400 mg QD + pibrentasvir 120 mg QD.
The mark [16] stands for this setting: with atazanavir + ritonavir 300 + 100 mg once daily, GLE/PIB 300/120 mg once daily, effect on the first dose of glecaprevir and pibrentasvir.
Where [17] appears, read: with carbamazepine 200 mg twice daily, GLE/PIB 300/120 mg single dose.
Setting [18] is: with cyclosporine 100 mg single dose, GLE/PIB 300/120 mg once daily.
The mark [19] stands for this setting: with cyclosporine 400 mg single dose, GLE/PIB 300/120 mg single dose.
Where [20] appears, read: with darunavir + ritonavir 800 + 100 mg once daily, GLE/PIB 300/120 mg once daily.
Where [21] appears, read: with elvitegravir/cobicistat/emtricitabine/tenofovir alafenamide 150/150/200/10 mg once daily, GLE/PIB 300/120 mg once daily.
Where [22] appears, read: with lopinavir/ritonavir 400/100 mg twice daily, GLE/PIB 300/120 mg once daily.
Where [23] appears, read: with omeprazole 20 mg once daily, GLE/PIB 300/120 mg single dose.
Where [24] appears, read: with omeprazole 40 mg once daily (1 hour before GLE/PIB), GLE/PIB 300/120 mg single dose.
The mark [25] stands for this setting: with rifampin 600 mg (first close), GLE/PIB 300/120 mg single dose.
[26] abbreviates: with rifampin 600 mg once daily, GLE/PIB 300/120 mg single dose 24 hours after final rifampin dose.

Like-named read-outs stand apart in the source and are kept apart here.

P-glycoprotein (P-gp), sequence (P08183 whole entry): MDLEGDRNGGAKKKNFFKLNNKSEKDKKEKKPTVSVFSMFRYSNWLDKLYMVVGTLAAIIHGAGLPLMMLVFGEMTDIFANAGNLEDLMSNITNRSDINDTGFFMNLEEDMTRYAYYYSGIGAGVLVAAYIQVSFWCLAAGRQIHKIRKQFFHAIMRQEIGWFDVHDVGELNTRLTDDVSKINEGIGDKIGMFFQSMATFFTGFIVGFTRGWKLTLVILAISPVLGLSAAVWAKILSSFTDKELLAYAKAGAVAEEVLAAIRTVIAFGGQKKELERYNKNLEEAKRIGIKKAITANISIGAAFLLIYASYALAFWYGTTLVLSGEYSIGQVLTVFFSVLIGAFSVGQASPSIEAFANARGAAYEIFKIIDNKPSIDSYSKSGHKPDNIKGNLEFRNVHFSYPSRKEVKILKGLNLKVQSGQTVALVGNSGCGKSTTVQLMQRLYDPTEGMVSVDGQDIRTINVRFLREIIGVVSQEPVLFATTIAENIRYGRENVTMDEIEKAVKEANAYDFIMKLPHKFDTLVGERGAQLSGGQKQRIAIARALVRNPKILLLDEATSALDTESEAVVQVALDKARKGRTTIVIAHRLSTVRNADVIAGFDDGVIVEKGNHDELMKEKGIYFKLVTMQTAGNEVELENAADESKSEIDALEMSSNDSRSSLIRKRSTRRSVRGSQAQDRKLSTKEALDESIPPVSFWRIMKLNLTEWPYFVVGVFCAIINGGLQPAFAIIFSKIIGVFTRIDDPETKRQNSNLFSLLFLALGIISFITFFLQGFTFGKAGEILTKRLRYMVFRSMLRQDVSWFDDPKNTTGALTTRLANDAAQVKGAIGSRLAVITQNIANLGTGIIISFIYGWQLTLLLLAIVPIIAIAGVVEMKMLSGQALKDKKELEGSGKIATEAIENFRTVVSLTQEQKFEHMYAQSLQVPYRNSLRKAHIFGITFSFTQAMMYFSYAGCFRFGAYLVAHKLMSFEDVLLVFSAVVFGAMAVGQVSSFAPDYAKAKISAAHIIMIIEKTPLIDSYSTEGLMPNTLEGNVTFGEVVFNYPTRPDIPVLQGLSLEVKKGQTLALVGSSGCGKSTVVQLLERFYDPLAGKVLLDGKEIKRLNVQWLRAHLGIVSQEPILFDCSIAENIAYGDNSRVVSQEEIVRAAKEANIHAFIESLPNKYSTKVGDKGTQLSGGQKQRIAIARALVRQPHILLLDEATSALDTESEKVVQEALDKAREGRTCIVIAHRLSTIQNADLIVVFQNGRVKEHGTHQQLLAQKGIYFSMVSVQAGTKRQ

Consider `C[C@H]1O[C@@H](O[C@H]2[C@@H](O)C[C@H](O[C@H]3[C@@H](O)C[C@H](O[C@H]4CC[C@@]5(C)[C@H](CC[C@@H]6[C@@H]5C[C@@H](O)[C@]5(C)[C@@H](C7=CC(=O)OC7)CC[C@]65O)C4)O[C@@H]3C)O[C@@H]2C)C[C@H](O)[C@@H]1O` [digoxin], for which the “Effect on Concentration” value in series [1] (concentration of the concomitant drug when coadministered with glecaprevir and pibrentasvir) was “↑ digoxin”. Also, the AUC increase in [2] was 48%. In series [3], the “Central Value Ratio (90% CI) AUC” value turned out to be 1.48 and the “Central Value Ratio (90% CI) Cmax” value was 1.72. In series [4] (setting [14]), the “AUCinf higher when coadministered, compared to digoxin alone” value was 48% and the “Cmax higher when coadministered, compared to digoxin alone” value is on record as 72%. Besides, in [4] (setting [15]), the “fraction of digoxin eliminated in urine, difference with and without glecaprevir and pibrentasvir” value is not above 18%; the “renal clearance, difference with and without glecaprevir and pibrentasvir” value is listed as not above 18%.

Regarding `CC(C)(C)[C@@H]1NC(=O)O[C@@H]2CCC[C@H]2OC/C=C/C(F)(F)c2nc3ccccc3nc2O[C@@H]2C[C@@H](C(=O)N[C@]3(C(=O)NS(=O)(=O)C4(C)CC4)C[C@H]3C(F)F)N(C2)C1=O` [glecaprevir, Glecaprevir], the “Central Value Ratio (90% CI) AUC” value in series [5] (setting [16]) is not below 6.53; in series [5] (setting [17]), 0.34; in [5] (setting [18]) it was 1.37; in series [5] (setting [19]) it was 5.08; in series [5] (setting [20]), 4.97; in [5] (setting [21]) it was 3.05. The “Central Value Ratio (90% CI) AUC” value in series [5] (setting [22]) is 4.38; in series [5] (setting [23]), 0.71; in series [5] (setting [24]), 0.49; in series [5] (setting [25]), 8.55; in series [5] (setting [26]), 0.12. Further, the “Central Value Ratio (90% CI) Cmax” value in series [5] (setting [16]) is given as not below 4.06; in [5] (setting [17]) it was 0.33; in series [5] (setting [18]), 1.30; in series [5] (setting [19]), 4.51; in series [5] (setting [20]), 3.09; in series [5] (setting [21]), 2.50. In addition, the “Central Value Ratio (90% CI) Cmax” value is 2.55 in series [5] (setting [22]); 0.78 in [5] (setting [23]); 0.36 in series [5] (setting [24]); 6.52 in series [5] (setting [25]); 0.14 in [5] (setting [26]). Besides, the “Central Value Ratio (90% CI) Cmin” value in series [5] (setting [16]) is not below 14.3; in series [5] (setting [18]), 1.34; in series [5] (setting [20]), 8.24; in series [5] (setting [21]), 4.58; in series [5] (setting [22]) it was 18.6. In addition, the “inhibition of CYP3A” value in [6] was “weak inhibitors”. In addition, the “Effect on Concentration” value in [1] (concomitant Darunavir, Lopinavir, Ritonavir) was “↑ glecaprevir”; in series [1] (concomitant St. John's Wort (hypericum perforatum)), “↓ glecaprevir”; in [1] (concomitant drug Carbamazepine), “↓ glecaprevir”; in series [1] (concomitant drug Cyclosporine) it was “↑ glecaprevir”; in [1] (concomitant drug Efavirenz), “↓ glecaprevir”. In addition, the “substrate of OATP1B1/3” value in series [7] is given as “substrate”. The “inhibition of BCRP” value in series [8] was “inhibitors”. Further, in series [9], the “inhibition of UGT1A1” value was “weak inhibitors”. The “inhibition of CYP1A2” value in [10] is “weak inhibitors”. Moreover, the “inhibition of OATP1B1/3” value is reported as “inhibitor” in [11] and “inhibitors” in series [11] (listed as Glecaprevir). For the same compound, in series [12], the “substrate of P-gp and/or BCRP” value was “substrates”. In addition, the “inhibition of P-gp” value in [13] is “inhibitors”.

As to `COC(=O)N[C@H](C(=O)N1CCC[C@H]1c1nc2cc([C@H]3CC[C@H](c4cc5nc([C@@H]6CCCN6C(=O)[C@@H](NC(=O)OC)[C@@H](C)OC)[nH]c5cc4F)N3c3cc(F)c(N4CCC(c5ccc(F)cc5)CC4)c(F)c3)c(F)cc2[nH]1)[C@@H](C)OC` [pibrentasvir], in [6], the “inhibition of CYP3A” value is on record as “weak inhibitors”. For the same compound, in [8], the “inhibition of BCRP” value was “inhibitors”. Further, in series [9], the “inhibition of UGT1A1” value is “weak inhibitors”. Also, in series [10], the “inhibition of CYP1A2” value was “weak inhibitors”. Moreover, the “inhibition of OATP1B1/3” value in series [11] is “inhibitors”. Also, in series [12], the “substrate of P-gp and/or BCRP” value was “substrates”. Besides, in [13], the “inhibition of P-gp” value is recorded as “inhibitors”.
